Where “and” joins values, the source holds several entries; their conditions need not be identical. Identical values can stand only once. Where a SMILES comes first, the peptide text is derived from it. [ ]: non-standard residue; d: D form. NMeC = CN[C@@H](CS)C(=O)O
Legend:
[1] = system: bleomycin (BLM)-induced scleroderma mouse model; assay: H2O2 level in skin lesion, BLM-induced scleroderma mouse model; format: in vivo, mice; settings: compound A (hydrochloride) 600 mg/kg/d by gavage or compound B (trifluoroacetate) 200 mg/kg/d i.p., 28 days with BLM
Description: Materials: C57BL/6 female mice, weighing 20-25 g, were purchased from Shanghai SLAC Laboratory Animal Co., Ltd. Using a random number table method, 24 mice were divided into a blank control group (1), a scleroderma model group (2), a scleroderma+compound A treatment group (3), and a scleroderma+compound B treatment group (4), with 6 mice in each group. Bleomycin (BLM) was purchased from Sigma. An H-E staining kit was purchased from Beijing Solarbio Science & Technology Co., Ltd. Compound A used in this example was in the form of a hydrochloride thereof, and compound B was in the form of a trifluoroacetate thereof.
Method: The intended injection site (area 1 cm^2) of the mice was shaved using an electric shaver. […] Conventional iodine tincture was used to disinfect the back skin of the mice, and a local diseased skin tissue was surgically cut, fixed in 4% paraformaldehyde, embedded in paraffin, sectioned, and analyzed by H-E staining. […]
Method: Part of the skin lesion tissue of the mice was taken, and the contents of hydroxyproline and hydrogen peroxide in the skin lesion region were detected according to the requirements in the kit instructions.

[2] = system: cisplatin-induced nephrotoxicity in SD rats; assay: Cisplatin-induced nephrotoxicity in SD rats: blood creatinine and urea nitrogen; format: in vivo, rat; settings: for Effect on cisplatin-induced increase of blood creatinine and urea nitrogen (in words): 30 min prior to cisplatin 5 mg/kg i.p.: compound B 200 mg/kg i.p., compound A 800 mg/kg p.o., amifostine 200 mg/kg i.p., day 5; for Creatinine / Urea nitrogen: whole blood day 5, individual rats
Procedure: Healthy male SPF grade SD rats (body weight 250-300 g) were selected. Control group: PBS […] Cisplatin+compound B group: 5 mg/kg i.p.+compound B at 200 mg/kg i.p., with compound B being administered 30 min prior to cisplatin administration Cisplatin+amifostine group: 5 mg/kg i.p.+AMI at 200 mg/kg i.p., with AMI being administered 30 min prior to cisplatin administration Cisplatin+compound A group: 5 mg/kg i.p.+compound A at 800 mg/kg p.o., with compound A being administered 30 min prior to cisplatin administration (1) The SD rats used in the experiment were weighed, labeled, and evenly divided into 5 groups, with 3 SD rats in each group. (2) The compound B, compound A, and AMI groups were respectively administered at the planned concentrations. […] (3) The rats were weighed and recorded daily, and on day 5, blood was taken from the intraocular canthus of the SD rats and placed in an anticoagulant tube.

[3] = system: rat myocardial infarction model (coronary ligation 30 min, reperfusion); assay: Myocardial infarction model: myocardial enzyme LDH in serum; format: in vivo; settings: for Improvement rate (%) of LDH: compared with model group; for LDH: serum, x ± s, n = 10
Procedure: 1. The rats were grouped and administered according to the following methods (2) Compound B (i.v.) at 100 mg/kg (3) Compound A (i.v.) at 100 mg/kg (4) Compound A (oral) at 500 mg/kg (5) Isosorbide mononitrate injection (i.v.) at 1 mg/kg (equivalent to clinical equivalent dose). There were 10 rats in each group, and the rats were administered intravenously immediately after 30 min of ischemia and reperfusion, i.v. 10% 1 min+i.v. drip 90% 30 min. The administration volume was 2 ml/rat. Compound A (oral) at 500 mg/kg was administered intragastrically 2 h after reperfusion when the animal was awake, and the administration volume was 10 ml/kg. Note: Compounds A and B used in this example were in the form of hydrochloride salts thereof. Given intraperitoneal injection of 3% sodium pentobarbital at 60 mg/kg for general anesthesia, the rats were fixed on an operating table in the supine position. The surgical field of the anterolateral chest was depilated and routinely disinfected. The skin and muscular layer were cut open, purse-string suture was performed on the muscular layer, the chest was opened on the left at the fourth intercostal space, and the heart was pulled out with a ring-shaped retractor. At the position of the anterior descending coronary artery 3-4 mm below the left atrial appendage, a 6/0 damage-free silk thread was threaded, and a nylon thread with a diameter of 1.6 mm was juxtaposed and ligated together with the anterior descending coronary artery, while the other end was left outside the body for later use. The heart was placed back into the chest cavity, the air in the chest cavity was emptied, and the chest cavity was closed. 30 min after ligation, the nylon thread was carefully removed for reperfusion. Compared with the normal lead II electrocardiogram (ECG-II), ST segment elevation in ECG-II by 0.1 mV or more 30 min after coronary artery ligation was regarded as successful ischemia. […] Blood was collected from the rats through the abdominal aorta and centrifuged at 3000 rpm×10 min at 4° C., and the upper serum was taken to determine LDH by enzyme-linked immunosorbent assay.

[4] = compound B (trifluoroacetate) 200 mg/kg i.p. 30 min prior to cisplatin 5 mg/kg i.p.
[5] = compound B (hydrochloride) i.v. 100 mg/kg
[6] = compound A (trifluoroacetate) 800 mg/kg p.o. 30 min prior to cisplatin 5 mg/kg i.p.
[7] = compound A (hydrochloride) i.v. 100 mg/kg
[8] = compound A (hydrochloride) oral 500 mg/kg

CNC(=O)[C@H](CS)NC(=O)[C@H](CS)NC(=O)[C@H](CS)NC [Compound B, (R)-3-mercapto-N—((R)-3-mercapto-1-(((R)-3-mercapto-1-(methylamino)-1-oxoprop-2-yl)amino)-1-oxoprop-2-yl)-2-(methylamino)propionamide] (H-[NMeC]-Cys-Cys-NHMe) was tested, and the “Concentration of H2O2 in the skin” value [1] was “reduced”, the “Effect on cisplatin-induced increase of blood creatinine and urea nitrogen (in words)” value [2] was “significantly reduce the increased blood creatinine and urea nitrogen levels” and the Creatinine [2, 4] was 18.1 µmol/L and 14.7 µmol/L and 30.4 µmol/L. The Urea nitrogen [2, 4] was 7.28 mmol/L and 5.71 mmol/L and 6.77 mmol/L, the “Improvement rate (%) of LDH” value [3, 5] was 22.2% and the LDH [3, 5] was 1476.7 ± 282.4 U/L.

CNC(=O)[C@H](CS)NC(=O)[C@H](CS)NC [Compound A, (R)-3-mercapto-N—((R)-3-mercapto-1-(methylamino)-1-oxoprop-2-yl)-2-(methylamino)propionamide] (H-[NMeC]-Cys-NHMe) was tested, and the “Concentration of H2O2 in the skin” value [1] was “reduced”, the “Effect on cisplatin-induced increase of blood creatinine and urea nitrogen (in words)” value [2] was “significantly reduce the increased blood creatinine and urea nitrogen levels” and the Creatinine [2, 6] was 28.4 µmol/L and 18.1 µmol/L and 17.1 µmol/L. For the same compound, the Urea nitrogen [2, 6] was 7.68 mmol/L and 7.16 mmol/L and 10.21 mmol/L, the “Improvement rate (%) of LDH” value [3, 7] was 19.9% and the LDH [3, 7] was 1521.6 ± 353.6 U/L. For the same compound, the “Improvement rate (%) of LDH” value [3, 8] was 25.8% and the LDH [3, 8] was 1408 ± 308.7 U/L.

Reference: patent US20220259164A1, “USE OF AMINOTHIOL COMPOUNDS AS CEREBRAL NERVE OR HEART PROTECTIVE AGENT” (SHANGHAI KECHOW PHARMA, INC., priority 2019, published 2022)
